For data set [1], the system named is Staph. aureus ATCC29213 (semi-resistant). As to the kind of experiment: MIC determination, MHB broth microdilution (CLSI M07-A9). The format is cell-based. To be noted: Staphylococcus aureus. For orientation: Broth dilution looks for growth in wells or tubes with falling amounts of substance.
Data set [2] concerns Staph. aureus ATCC700787 (MRSA/VISA). As to the kind of experiment: MIC/FIC/FICI determination, MHB broth microdilution (CLSI M07-A9). The class given is cell-based. To be noted: Staphylococcus aureus.
Data set [3] relates to VRSA (vancomycin-resistant Staphylococcus aureus). The following applies: cited from earlier work.
For data set [4] the following is noted: rat, in vivo; cited from earlier work.
For data set [5] the following is noted: rat, in vivo, topical or ocular; cited from earlier work.
Data set [6] concerns Enterococcus faecium ATCC700221 (VRE). The data set is described as follows: MIC/FIC/FICI determination, MHB broth microdilution (CLSI M07-A9). The format is cell-based. The following applies: single compound.

Values after ≈ are worked out from the molar mass of the structure shown. Where two headings read alike, the source gives them in different places.

The source of these data is patent publication US20140294925A1 (priority 2013, published 2014).

For `CN[C@H](CC(C)C)C(=O)N[C@H]1C(=O)N[C@@H](CC(N)=O)C(=O)N[C@H]2C(=O)N[C@H]3C(=O)N[C@H](C(=O)N[C@H](C(=O)O)c4cc(O)cc(O)c4-c4cc3ccc4O)[C@H](O)c3ccc(c(Cl)c3)Oc3cc2cc(c3O[C@@H]2O[C@H](CO)[C@@H](O)[C@H](O)[C@H]2O[C@H]2C[C@](C)(N)[C@H](O)[C@H](C)O2)Oc2ccc(cc2Cl)[C@H]1O` [vancomycin], the MIC in data set [1] (ATCC29213, 24 h) stood at 2 µg/mL (≈ 1.38 µM); in data set [1] (ATCC29213, 48 h), 2 µg/mL (≈ 1.38 µM); in data set [2] (24 h), 8 µg/mL; in data set [2] (48 h), 8 µg/mL. In addition, the MIC for vancomycin in data set [3] is ≥ 16 µg/mL.

With rhamnolipids, the “acute oral toxicity LD50” value in data set [4] is listed as > 5000 mg/kg. Besides, in data set [5], the “acute dermal toxicity LD50” value is on record as > 5000 mg/kg.

`CCCCCCCCCC(=O)N[C@@H](Cc1c[nH]c2ccccc12)C(=O)N[C@H](CC(N)=O)C(=O)N[C@@H](CC(=O)O)C(=O)N[C@@H]1C(=O)NCC(=O)N[C@@H](CCCN)C(=O)N[C@@H](CC(=O)O)C(=O)N[C@H](C)C(=O)N[C@@H](CC(=O)O)C(=O)NCC(=O)N[C@H](CO)C(=O)N[C@@H]([C@H](C)CC(=O)O)C(=O)N[C@@H](CC(=O)c2ccccc2N)C(=O)O[C@@H]1C` [daptomycin]: the MIC in data set [1] (ATCC29213, single compound, 24 hours exposure, read-out: MIC) came out at 2 µg/mL (≈ 1.23 µM); in data set [1] (ATCC29213, single compound, 48 hours exposure, read-out: MIC) it was 2 µg/mL (≈ 1.23 µM); in data set [2] (single compound, 24 hours exposure, read-out: MIC) it was 4 µg/mL; in data set [2] (single compound, 48 hours exposure, read-out: MIC), 8 µg/mL; in data set [6] (24 hours exposure), 8 µg/mL; in data set [6] (48 hours exposure), 8 µg/mL.

The MIC is the smallest concentration in the dilution series that meets the test's criterion for growth inhibition.
